In ChEMBL document CHEMBL1156591, “Selective inhibitory effects of hybrid liposomes on the growth of HIV type 1-infected cells in vitro” (Bioorg Med Chem Lett, 2008) one finds IC50 data, which are given here for seven compounds.

The subject of one experiment is MOLT-4. The experiment in a line: Growth inhibition of human MOLT4 cells after 5 days by MTT assay. The experiment is classed as cell-based. The settings on record: MOLT-4, 120 h. (Formazan colour is commonly taken as a measure of viable cells.)
Experiment [1] relates to Human immunodeficiency virus 1. The experiment in a line: Growth inhibition of HIV1 3B infected human MOLT4 cells after 5 days by MTT assay. As to conditions: Human immunodeficiency virus 1, 3B, MOLT-4, 120 h. The experiment is classed as functional, organism-based.

For the compound `CCCCCCCCCCCCOCCOCCOCCOCCOCCOCCOCCOCCOCCOCCOCCOCCOCCOCCOCCOCCOCCOCCOCCOCCOCCOCCOCCO`, the IC50 with MOLT-4 stood at 190 µM; in experiment [1] it was 47 µM.

Turning to `CCCCCCCCCCCCOCCOCCOCCOCCOCCOCCOCCOCCOCCOCCOCCOCCOCCOCCOCCOCCOCCOCCOCCOCCOCCO`, the IC50 came to 121 µM in the experiment with MOLT-4 and 34 µM in experiment [1].

In the case of `CCCCCCCCCCCCOCCOCCOCCOCCOCCOCCOCCOCCO`, the IC50 was determined as 59 µM in the experiment on MOLT-4 and 29 µM in experiment [1].

In the case of `CCCCCCCCCCCCOCCOCCOCCOCCOCCOCCOCCOCCOCCOCCO`, the IC50 with MOLT-4 is 41 µM; in experiment [1], 26 µM.

Consider `CCCCCCCCCCCCOCCOCCOCCOCCOCCOCCOCCOCCOCCOCCOCCOCCOCCOCCOCCOCCOCCOCCOCCOCCOCCOCCOCCOCCOCCO`, for which the IC50 was determined as 221 µM in the experiment with MOLT-4 and 40 µM in experiment [1].

On to `CCCCCCCCCCCCCC(=O)OC[C@H](COP(=O)([O-])OCC[N+](C)(C)C)OC(=O)CCCCCCCCCCCCC` [DIMYRISTOYLPHOSPHATIDYLCHOLINE], for which the IC50 in the experiment on MOLT-4 came out at 293 µM; in experiment [1], 50 µM.

As to `CCCCCCCCCCCCOCCOCCOCCOCCO` [LAURETH 4], the results for the IC50 (in the experiment with MOLT-4; in experiment [1]) were 118 µM and 37 µM, respectively.

A word on the IC50: it is the concentration at which inhibition is half-maximal. Higher therefore signals a need for much substance.
